{"source": "ChEMBL document CHEMBL3817824", "about": "“Synthesis and biological evaluation of new [1,2,4]triazolo[4,3-a]pyridine derivatives as potential c-Met inhibitors” (Bioorg Med Chem, 2016)", "key": {"MKN-45": {"system": "MKN-45", "assay": "Antitumor activity against human MKN45 cells xenografted in ig dosed nude BALB/c mouse measured twice every week", "format": "functional, organism-based"}, "[1]": {"target": "RAC-alpha serine/threonine-protein kinase (Homo sapiens, UniProt P31749)", "settings": "Huh-7, 100 to 1000 nM", "description": "Inhibition of AKT phosphorylation in human HuH7 cells at 100 to 1000 nM after 6 to 24 hrs by Western blot analysis"}, "Huh-7": {"system": "Huh-7", "assay": "Inhibition of ERK phosphorylation in human HuH7 cells at 100 to 1000 nM after 6 to 24 hrs by Western blot analysis", "format": "cell-based"}, "NCI-H1993 [2]": {"system": "NCI-H1993", "assay": "Antitumor activity against human NCI-H1993 cells xenografted in ig dosed nude BALB/c mouse measured twice every week", "format": "functional, organism-based"}, "[3]": {"assay": "Cytotoxicity against human SNU5 cells assessed as reduction in cell survival incubated for 3 days by cell titre-glo assay", "settings": "SNU-5, 72 h"}, "[4]": {"assay": "Mean residence time in Sprague-Dawley rat at 5 mg/kg", "format": "ADME, organism-based", "settings": "in vivo"}, "[5]": {"assay": "AUC in Sprague-Dawley rat at 5 mg/kg", "format": "ADME, organism-based", "settings": "in vivo"}, "[6]": {"assay": "Cmax in Sprague-Dawley rat at 5 mg/kg", "format": "ADME, organism-based", "parameters": "dose 5 mg/kg", "settings": "in vivo"}, "[7]": {"assay": "Apparent oral clearance in Sprague-Dawley rat at 5 mg/kg", "format": "ADME, organism-based", "settings": "in vivo"}, "[8]": {"assay": "Apparent volume of distribution during terminal phase in Sprague-Dawley rat at 5 mg/kg", "format": "ADME, organism-based", "settings": "in vivo, read-out: Vz/F"}, "[9]": {"assay": "Half life in Sprague-Dawley rat at 5 mg/kg", "format": "ADME, organism-based", "settings": "in vivo"}, "[10]": {"target": "Hepatocyte growth factor receptor (Homo sapiens, UniProt P08581)", "assay": "Inhibition of c-Met (unknown origin) incubated for 1 hr by spectrophotometric analysis"}, "[11]": {"assay": "Cytotoxicity against human MKN45 cells assessed as reduction in cell survival incubated for 3 days by cell titre-glo assay", "format": "functional, cell-based", "settings": "MKN-45, 72 h"}, "[12]": {"assay": "Cytotoxicity against human MHCC97L cells assessed as reduction in cell survival incubated for 3 days by cell titre-glo assay", "format": "functional, cell-based", "settings": "72 h"}, "[13]": {"assay": "Cytotoxicity against human HCCLM3 cells assessed as reduction in cell survival incubated for 3 days by cell titre-glo assay", "format": "functional, cell-based", "settings": "HCCLM3, 72 h"}, "NCI-N87": {"system": "NCI-N87", "assay": "Cytotoxicity against human NCI-N87 cells assessed as reduction in cell survival incubated for 3 days by cell titre-glo assay", "format": "functional, cell-based", "settings": "NCI-N87, 72 h"}, "NCI-H1975": {"system": "NCI-H1975", "assay": "Cytotoxicity against human NCI-H1975 cells assessed as reduction in cell survival incubated for 3 days by cell titre-glo assay", "format": "functional, cell-based", "settings": "NCI-H1975, 72 h"}, "A549": {"system": "A549", "assay": "Cytotoxicity against human A549 cells assessed as reduction in cell survival incubated for 3 days by cell titre-glo assay", "format": "functional, cell-based", "settings": "A549, 72 h"}, "[14]": {"assay": "Cytotoxicity against human MHCC97H cells assessed as reduction in cell survival incubated for 3 days by cell titre-glo assay", "format": "functional, cell-based", "settings": "72 h"}, "[15]": {"assay": "Antitumor activity against human MKN45 cells xenografted in nude BALB/c mouse assessed as inhibitory rate at 10 mg/kg, ig measured twice every week", "format": "functional", "settings": "MKN-45, po, read-out: TGI"}, "NCI-H1993 [16]": {"system": "NCI-H1993", "assay": "Antitumor activity against human NCI-H1993 cells xenografted in nude BALB/c mouse assessed as inhibitory rate at 10 mg/kg, ig measured twice every week", "format": "functional"}, "[17]": {"assay": "Cytotoxicity against human HuH7 cells assessed as reduction in cell survival incubated for 3 days by cell titre-glo assay", "format": "functional, cell-based", "settings": "Huh-7, 72 h"}, "NCI-H1993 [18]": {"system": "NCI-H1993", "assay": "Cytotoxicity against human NCI-H1993 cells assessed as reduction in cell survival incubated for 3 days by cell titre-glo assay", "format": "functional, cell-based", "settings": "NCI-H1993, 72 h"}, "NCI-H1993 [19]": {"system": "NCI-H1993", "assay": "Antitumor activity against human NCI-H1993 cells xenografted in nude BALB/c mouse assessed as inhibitory rate at 30 mg/kg, ig measured twice every week", "format": "functional", "settings": "NCI-H1993, po, read-out: TGI"}, "[20]": {"assay": "Acute toxicity in ig dosed nude BALB/c mouse administered as qd measured for 14 days", "format": "organism-based", "settings": "in vivo, po"}, "[21]": {"assay": "Toxicity in ig dosed nude BALB/c mouse administered as qd treated for 28 days followed by rehabilitation for 28 days", "format": "organism-based", "settings": "in vivo, po"}, "[22]": {"assay": "Antitumor activity against human MKN45 cells xenografted in nude BALB/c mouse assessed as inhibitory rate at 60 mg/kg, ig measured twice every week", "format": "functional", "settings": "MKN-45, po, read-out: TGI"}, "Mus musculus [23]": {"system": "Mus musculus", "assay": "Toxicity in nude BALB/c mouse assessed as effect on body weight at 15 to 225 mg/kg, ig qd for treated for 28 days followed by rehabiliation for 28 days measured during compound dosing and rehabilitation period relative to vehicle control", "format": "organism-based", "settings": "in vivo, po, 672 h"}, "[24]": {"assay": "Antitumor activity against human MKN45 cells xenografted in nude BALB/c mouse assessed as inhibitory rate at 30 mg/kg, ig measured twice every week", "format": "functional", "settings": "MKN-45, po, read-out: TGI"}, "Mus musculus [25]": {"system": "Mus musculus", "assay": "Toxicity in nude BALB/c mouse assessed as clinical pathologies at 15 to 225 mg/kg, ig qd for treated for 28 days followed by rehabiliation for 28 days measured on day 56 relative to vehicle control", "format": "organism-based", "settings": "in vivo, po, 672 h"}, "Mus musculus [26]": {"system": "Mus musculus", "assay": "Acute toxicity in nude BALB/c mouse assessed as clinical pathologies at 300 to 600 mg/kg, ig qd after 28 days", "format": "organism-based", "settings": "in vivo, po, 672 h"}, "NCI-H1993 [27]": {"system": "NCI-H1993", "assay": "Antitumor activity against human NCI-H1993 cells xenografted in nude BALB/c mouse assessed as inhibitory rate at 60 mg/kg, ig measured twice every week", "format": "functional", "settings": "NCI-H1993, po, read-out: TGI"}}, "note": "Active and inactive are the calls of the source. The calls are words filed in the database; no cut-off is given here.", "data": [{"smiles": "CN1C(=O)COc2c1cnc1ccc(Sc3nnc4c(F)cc(-c5cnn(C)c5)cn34)cc21", "values": [{"measurement": "TGI", "setting": "MKN-45", "value": "Dose-dependent effect"}, {"measurement": "inhibition", "setting": "[1]", "value": "inactive"}, {"measurement": "inhibition", "setting": "Huh-7", "value": "inactive"}, {"measurement": "TGI", "setting": "NCI-H1993 [2]", "value": "Dose-dependent effect"}]}, {"smiles": "Cn1cc(-c2cc(F)c3nnc(Sc4ccc5ncc6c(c5c4)OCC(=O)N6)n3c2)cn1", "values": [{"measurement": "IC50", "setting": "[3]", "value": 17.8, "unit": "nM"}]}, {"smiles": "Cn1cc(-c2ccc3nnc(C(F)(F)c4ccc5ncccc5c4)n3n2)cn1", "note": "[JNJ-38877605]", "values": [{"measurement": "MRT", "setting": "[4]", "value": 4.9, "unit": "h"}, {"measurement": "AUC", "setting": "[5]", "value": 17300, "unit": "ng·h/mL"}, {"measurement": "Cmax", "setting": "[6]", "value": 2370, "unit": "ng/mL"}, {"measurement": "CL/F", "setting": "[7]", "value": 5.81, "unit": "mL/min/kg"}, {"measurement": "Vd/F", "setting": "[8]", "value": 1.48, "unit": "L/kg"}, {"measurement": "half-life", "setting": "[9]", "value": 2.97, "unit": "h"}]}, {"smiles": "Cn1cc(-c2ccc3nnc(Sc4ccc5ncc6c(c5c4)OCC(=O)N6)n3c2)cn1", "values": [{"measurement": "IC50", "setting": "[3]", "value": 85.8, "unit": "nM"}]}, {"smiles": "COCCN1C(=O)COc2c1cnc1ccc(Sc3nnc4c(F)cc(-c5cnn(C)c5)cn34)cc21", "values": [{"measurement": "IC50", "setting": "[3]", "value": 4.5, "unit": "nM"}]}, {"smiles": "Cn1cc(-c2cc(F)c3nnc(Sc4ccc5ncc6c(c5c4)OCCN6C(=O)C4CC4)n3c2)cn1", "values": [{"measurement": "IC50", "setting": "[3]", "value": 12.3, "unit": "nM"}]}, {"smiles": "CN1C(=O)COc2c1cnc1ccc(Sc3nnc4c(OC(F)F)cc(-c5cnn(C)c5)cn34)cc21", "values": [{"measurement": "IC50", "setting": "[3]", "value": "> 1000", "unit": "nM"}, {"measurement": "IC50", "setting": "[10]", "value": "> 1000", "unit": "nM"}]}, {"smiles": "Cn1cc(-c2ccc3nnc(Sc4ccc5ncccc5c4)n3n2)cn1", "note": "[SGX-523]", "values": [{"measurement": "IC50", "setting": "[11]", "value": 15, "unit": "nM"}, {"measurement": "IC50", "setting": "[12]", "value": 18, "unit": "nM"}, {"measurement": "IC50", "setting": "[13]", "value": 24, "unit": "nM"}, {"measurement": "IC50", "setting": "NCI-N87", "value": "> 10000", "unit": "nM"}, {"measurement": "IC50", "setting": "NCI-H1975", "value": "> 10000", "unit": "nM"}, {"measurement": "IC50", "setting": "A549", "value": "> 10000", "unit": "nM"}, {"measurement": "IC50", "setting": "[14]", "value": 11, "unit": "nM"}, {"measurement": "IC50", "setting": "[3]", "value": 3.9, "unit": "nM"}, {"measurement": "inhibition in vivo at 10 mg/kg", "setting": "[15]", "value": 11.2, "unit": "%"}, {"measurement": "TGI", "setting": "NCI-H1993 [16]", "value": "inactive"}, {"measurement": "IC50", "setting": "[17]", "value": "> 10000", "unit": "nM"}, {"measurement": "IC50", "setting": "NCI-H1993 [18]", "value": 25, "unit": "nM"}]}, {"smiles": "Cn1cc(-c2cc(F)c3nnc(Sc4ccc5ncc6c(c5c4)OC[C@@H]4CCCN64)n3c2)cn1", "values": [{"measurement": "IC50", "setting": "[3]", "value": 327, "unit": "nM"}]}, {"smiles": "Cn1cc(-c2cc(F)c3nnc(Sc4ccc5ncc6c(c5c4)OC[C@H]4CCCN64)n3c2)cn1", "values": [{"measurement": "IC50", "setting": "[3]", "value": 29.2, "unit": "nM"}]}, {"smiles": "COCCN1C(=O)COc2c1cnc1ccc(Sc3nnc4ccc(-c5cnn(C)c5)cn34)cc21", "values": [{"measurement": "IC50", "setting": "[3]", "value": 19.1, "unit": "nM"}]}, {"smiles": "CN1C(=O)COc2c1cnc1ccc(Sc3nnc4ccc(-c5cnn(C)c5)cn34)cc21", "values": [{"measurement": "IC50", "setting": "[3]", "value": 3, "unit": "nM"}]}, {"smiles": "CN1C(=O)COc2c1cnc1ccc(Sc3nnc4c(F)cc(-c5cnn(C)c5)cn34)cc21.CS(=O)(=O)O", "values": [{"measurement": "inhibition in vivo at 30 mg/kg", "setting": "NCI-H1993 [19]", "value": 19.5, "unit": "%"}, {"measurement": "NOAEL at 336 h", "setting": "[20]", "value": 600, "unit": "mg/kg/day"}, {"measurement": "NOAEL at 672 h", "setting": "[21]", "value": 225, "unit": "mg/kg/day"}, {"measurement": "inhibition in vivo at 60 mg/kg", "setting": "[22]", "value": 61.4, "unit": "%"}, {"measurement": "inhibition in vivo at 10 mg/kg", "setting": "[15]", "value": 29.5, "unit": "%"}, {"measurement": "Activity", "setting": "Mus musculus [23]", "value": "Non-toxic"}, {"measurement": "inhibition in vivo at 10 mg/kg", "setting": "NCI-H1993 [16]; NCI-H1993, po, read-out: TGI", "value": 24.4, "unit": "%"}, {"measurement": "inhibition in vivo at 30 mg/kg", "setting": "[24]", "value": 34.2, "unit": "%"}, {"measurement": "Activity", "setting": "Mus musculus [25]", "value": "Non-toxic"}, {"measurement": "CL/F", "setting": "[7]", "value": 0.68, "unit": "mL/min/kg"}, {"measurement": "Activity", "setting": "Mus musculus [26]", "value": "Non-toxic"}, {"measurement": "inhibition in vivo at 60 mg/kg", "setting": "NCI-H1993 [27]", "value": 24.9, "unit": "%"}]}]}
